Assay results reported in ChEMBL document CHEMBL3244262, “A Fujita--Ban structure--activity analysis of 44 steroids” (1978).

Tested on: Rattus norvegicus
Assay: Glucocorticoid activity in sc dosed bilaterally adrenalectomized rat assessed as glycogen deposition in liver administered for 5 days relative to cortisol
Type: functional

Structure (SMILES) | log(activity)
CC(=O)[C@@]1(O)CC[C@H]2[C@@H]3C[C@H](C)C4=CC(=O)CC[C@]4(C)[C@H]3[C@@H](O)C[C@@]21C | 0.36
C[C@]12CC(=O)[C@H]3[C@@H](CCC4=CC(=O)CC[C@@]43C)[C@@H]1CC[C@@H]2C(=O)CO | -0.31
C[C@H]1C[C@H]2[C@@H]3CC[C@](O)(C(=O)CO)[C@@]3(C)C[C@H](O)[C@]2(F)[C@@]2(C)C=CC(=O)C=C12 | 1.15
CC(=O)[C@@]1(O)[C@H](O)C[C@H]2[C@@H]3CCC4=CC(=O)C=C[C@]4(C)[C@@]3(F)[C@@H](O)C[C@@]21C | 0.93
C[C@@H]1C[C@@]2(C)C(=CC1=O)CC[C@@H]1[C@@H]2[C@@H](O)C[C@@]2(C)[C@H]1CC[C@]2(O)C(=O)CO | 0.64
C[C@]12CCC(=O)C=C1CC[C@H]1[C@@H]3C[C@@H](O)[C@](O)(C(=O)CO)[C@@]3(C)C[C@H](O)[C@@]12F | 0.53
CC(=O)[C@H]1CC[C@H]2[C@@H]3C[C@H](C)C4=CC(=O)CC[C@]4(C)[C@@]3(F)[C@@H](O)C[C@]12C | 0.34
C[C@H]1C[C@@H]2[C@H]([C@@H](O)C[C@@]3(C)[C@H]2CC[C@]3(O)C(=O)CF)[C@@]2(C)CCC(=O)C=C12 | 0.29
C[C@H]1C[C@@H]2[C@H]([C@@H](O)C[C@@]3(C)[C@H]2CC[C@]3(O)C(=O)CF)[C@@]2(C)C=CC(=O)C=C12 | 0.2
C[C@H]1C[C@@H]2[C@H]([C@@H](O)C[C@@]3(C)[C@H]2CC[C@]3(O)C(=O)CO)[C@@]2(C)CCC(=O)C=C12 | 0.2
CC(=O)[C@H]1CC[C@H]2[C@@H]3C[C@H](C)C4=CC(=O)CC[C@]4(C)[C@H]3C(=O)C[C@]12C | 0.12
C[C@]12C=CC(=O)C=C1C=C[C@@H]1[C@@H]2[C@@H](O)C[C@@]2(C)[C@H]1CC[C@]2(O)C(=O)CO | 0.08
CC(=O)[C@H]1CC[C@H]2[C@@H]3C[C@H](F)C4=CC(=O)CC[C@]4(C)[C@@]3(F)[C@@H](O)C[C@]12C | 0.06
CC(=O)[C@H]1CC[C@H]2[C@@H]3CCC4=CC(=O)[C@H](C)C[C@]4(C)[C@@]3(F)C(=O)C[C@]12C | -0.01
CC(=O)OCC(=O)[C@@]1(O)CC[C@H]2[C@@H]3C[C@H](C)C4=CC(=O)CC[C@]4(C)[C@H]3C(=O)C[C@@]21C | -0.1
CC(=O)[C@@]1(O)CC[C@H]2[C@@H]3CCC4=CC(=O)[C@H](C)C[C@]4(C)[C@@]3(F)[C@@H](O)C[C@@]21C | -0.11

Structure (SMILES) | log(activity)
CC(=O)[C@H]1[C@H](C)C[C@H]2[C@@H]3CCC4=CC(=O)CC[C@]4(C)[C@@]3(F)C(=O)C[C@@]21C | -0.11
C[C@]12CCC(=O)C=C1C=C[C@@H]1[C@@H]2[C@@H](O)C[C@@]2(C)[C@H]1CC[C@]2(O)C(=O)CO | -0.15
CC(=O)[C@H]1CC[C@H]2[C@@H]3CCC4=CC(=O)[C@H](C)C[C@]4(C)[C@@]3(F)[C@@H](O)C[C@]12C | -0.28
C[C@@H]1C[C@H]2[C@@H]3C[C@H](F)C4=CC(=O)CC[C@]4(C)[C@H]3CC[C@]2(C)[C@@]1(O)C(=O)CO | -0.6
CC(=O)C1(C(C)=O)CC[C@H]2[C@@H]3CCC4=CC(=O)CC[C@]4(C)[C@@]3(F)[C@@H](O)C[C@@]21C | -0.7
CC(=O)[C@H]1CC[C@H]2[C@@H]3C[C@H](F)C4=CC(=O)CC[C@]4(C)[C@H]3C(=O)C[C@]12C | -1.15
CC(=O)[C@H]1CC[C@H]2[C@@H]3CCC4=CC(=O)CC[C@]4(C)[C@@]3(F)[C@@H](O)C[C@]12C | -1.3
CC(=O)[C@H]1[C@H](O)C[C@H]2[C@@H]3CCC4=CC(=O)CC[C@]4(C)[C@@]3(F)[C@@H](O)C[C@@]21C | -1.3
C[C@]12C[C@H](O)[C@H]3[C@@H](CCC4=CC(=O)CC[C@@]43C)[C@@H]1CC[C@@H]2C(=O)CO [CORTICOSTERONE] | -0.55
C[C@]12CCC(=O)C=C1CC[C@@H]1[C@@H]2C(=O)C[C@@]2(C)[C@H]1CC[C@]2(O)C(=O)CO [CORTISONE] | -0.46
C[C@]12CCC(=O)C=C1CC[C@H]1[C@@H]3CC[C@](O)(C(=O)CO)[C@@]3(C)C[C@H](O)[C@@]12F [FLUDROCORTISONE] | 0.9
C[C@]12CCC(=O)C=C1CC[C@@H]1[C@@H]2[C@@H](O)C[C@@]2(C)[C@H]1CC[C@]2(O)C(=O)CO [HYDROCORTISONE] | 0
C[C@]12C=CC(=O)C=C1CC[C@@H]1[C@@H]2[C@@H](O)C[C@@]2(C)[C@H]1CC[C@]2(O)C(=O)CO [PREDNISOLONE] | 0.43
C[C@]12C=CC(=O)C=C1CC[C@@H]1[C@@H]2C(=O)C[C@@]2(C)[C@H]1CC[C@]2(O)C(=O)CO [PREDNISONE] | 0.32
C[C@]12C=CC(=O)C=C1CC[C@H]1[C@@H]3C[C@@H](O)[C@](O)(C(=O)CO)[C@@]3(C)C[C@H](O)[C@@]12F [TRIAMCINOLONE] | 1.03
